Results published in patent US6495529B1 (Warner-Lambert Company, priority 1998, dated 2002).
Where two headings read alike, the source gives them in different places.

Tests used:
[1] = system: Swiss-Webster mice; experiment: Locomotor stimulant and depressant effects in mice; details: mice, i.p.; for locomotor depressant effect (in words) / locomotor stimulant effect (in words): 2-hour session
Method: (§1) Male Swiss-Webster mice (HSD ND4, Harlan Sprague Dawley, Houston, Tex.) aged 2-3 months were used in these studies. Each dose group consisted of 8 mice. The mice were housed 2 to 4 per cage in 30.4×22.9×15.2 cm clear polycarbonate cages with food and water available ad libitum for at least one week prior to locomotor activity testing. The colony was maintained at 23±1° C., on a normal light-dark cycle beginning at 0700 hr. All testing took place during the light portion of the light-dark cycle.
(§2) Horizontal (forward movement) locomotor activity was measured using a standardized, optical activity monitoring system [Model KXYZCM (16), Omnitech Electronics, Columbus, Ohio]. Activity was monitored in forty 40.5×40.5×30.5 cm clear acrylic chambers that where housed in sets of two within larger sound-attenuating chambers. A panel of 16 infrared beams and corresponding photodetectors were spaced 2 cm apart along the sides and 2.4 cm above the floor of each activity chamber. A 7.5-W incandescent light above each chamber provided dim illumination via a rheostat set to 20% of full scale. Fans provided an 80-dB ambient noise level within the chamber.
(§3) (+)-Amphetamine was used as a positive control. The total horizontal distance traversed (cm) was recorded at 10 minute intervals for a 2-hour session. Separate groups of 8 mice were assigned to each dose or saline group, and dose-effect testing continued for each compound until maximal stimulant or depressant effects could be estimated. A separate control group was tested along with each compound.
(§4) Using TableCurve 2D v2.03 (Jandel Scientific), the mean average total distance traversed (cm/10 min) for that period was fit to a 3-parameter logistic peak function of log10 dose (with the constant set to the mean of the saline group), and the maximum effect estimated from the resulting curve. The ED50 (dose producing ½ maximal stimulant activity) was estimated from a linear regression against log10 dose of the ascending portion of the dose-effect curve. The stimulant efficacy was the peak effect of the compound (cm/10 min) as estimated from the logistic peak function, minus the mean control distance traveled (cm/10 min), and was expressed for each stimulant compound as a ratio to the stimulant efficacy determined for (+)-amphetamine.
(§5) The mean average total distance traversed (cm/10 min) for that period were fit to a linear function of log10 dose of the descending portion of the dose-effect curve. […] Efficacy was the ratio of maximal depressant effect to maximum possible depression for each compound (mean average total distance of the control group minus the lowest mean total distance, expressed as a ratio to the control group total distance).
(§6) Time course data for each compound were considered in 2-way analyses of variance with dose as a between-group and time as a within-group factor. The dose-effect data were considered in 1-way analyses of variance, and planned individual comparisons were conduced between each dose and the saline control group. Interaction studies were considered in 2-way analyses of variance, with Pretreatment and Test dose as the factors.

[2] = target: T1, β2-receptors (Canis lupus familiaris, UniProt P54833); experiment: BETA-2 binding, 125Iodocyanopindolol (ICYP), canine lung membranes; set-up: species or system dog; details: radioligand
T1 construct: The lungs of mongrel dogs were separated from cartilaginous airways and major blood vessels; from tissue; host or cells: mongrel dog lung membranes
Method: (§7) The lungs of mongrel dogs were separated from cartilaginous airways and major blood vessels, weighted, chopped and placed into 10 volumes of ice-cold buffered sucrose (50 mM Tris-HCl pH 7.4, 1 mM EGTA, 0.32 M Sucrose). The tissue was then homogenized in a Polytron tissue homogenizer. The homogenate was filtered through two layers of cheesecloth, and the filtrate was dounced three times using a Con-Turque Potter homogenizer. […] The supernatant was recentrifuged at 30,000×g for 30 min at 4° C. and the resulting pellet was washed and resuspended in 10 volumes of Tris buffer (50 mM Tris HCL, pH 7.4, 1 mM EGTA) and incubated at 37° C. for 30 min in a shaking water bath. The suspension was centrifuged at 4° C., at 30,000×g for 30 min and the resulting pellet washed in 10 volumes of Tris buffer. […] Protein concentration was then determined by the Lowry method and the final suspension was adjusted to 10 mg of protein/ml, aliquoted and stored at −90° C.
Particulated were also prepared for β2 receptors using the identical procedure except the final protein concentration was adjusted to 0.1 mg/ml.
Nonspecific binding was determined in separate incubations in the presence of 2 μM dipropranolol. Each experimental point was determined in triplicate. […] Incubations were terminated as described above for the α1 assays. Filters were placed into polyethylene tubes and the bound ligand was determined by gamma spectrometry (Sano et al., 1993).
(§8) All data were analyzed with the aid of microcomputer nonlinear curve fitting programs (PRISM 2.0, Graphpad Software, San Diego Calif.).
(§9) The receptors resident in each of the three membrane preparations were evaluated by standard saturation analysis following the addition of increasing concentrations of the appropriate radioligand. […]

[3] = system: Swiss-Webster mice; details: for modification of stimulant or depressant effects by triprolidine pretreatment: mice pretreated with 0.01, 0.1 or 1.0 mg/kg triprolidine
[4] = system: α2-receptors; experiment: ALPHA-2 binding, p-125Iodoclonidine, canine brain (frontal cortex) membranes; set-up: species or system dog; details: for Kd: radioligand
Method: Membranes of mongrel dogs were harvested from the canine frontal cortex and prepared as described for lung except that the final membrane protein concentration was adjusted to 0.5 mg/ml.
Nonspecific binding was determined in separate incubations in the presence of 10 μM phentolamine. The final concentration of p-iodoclonidine was 44-45 pM in competition studies and between 50 pM and 10 nM in saturation experiments. Bound and free […] were separated and the bound quantitated as described above for the ICYP assays.
as §8
The receptors resident in each of the three membrane preparations were evaluated by standard saturation analysis following the addition of increasing concentrations of the appropriate radioligand.
The radio ligand added for subsequent α2-displacement assays was adjusted to evaluate only the high affinity receptor. Contributions from p-iodoclonidine binding to imidazoline receptors in the α2-displacement assay were evaluated with epinephrine.

[5] = target: α1-receptors; format: binding, dog; details: read-out: Alpha-1 Ki
Method: as §7
Nonspecific binding was determined for each concentration point in separate incubations, with 10 μM phentolamine. Each experimental point was determined in triplicate. […] All binding assay incubations were terminated by rapid dilution with 2 ml of ice-cold wash buffer (50 mM Tris-HCl, pH 7.4) and filtration through Whatman GF/B filters using Brandel receptor-binding harvester.
as §8, §9

[6] = Locomotor stimulant and depressant effects in mice; details: male, Swiss-Webster, mouse, in vivo, ip
Method: as §1, §2, §3, §4, §5, §6

[7] = system: rats; experiment: Dosage that raised mean arterial pressure 10% in rat; format: in vivo
[8] = system: histamine-challenged rats; experiment: Nasal airway pressure in histamine-challenged rats; details: Investigation 1, rats
[9] = system: Sprague Dawley rats; experiment: Nasal airway pressure in normal (non-histamine-challenged) rats; details: 100% dose i.v., non-histamine-challenged rats
[10] = system: New Zealand white rabbits; experiment: Intraocular pressure (IOP) after topical application to rabbit eye; details: rabbit; for effect on IOP (in words): topical 1% and 2%, treated eye
[11] = system: New Zealand white rabbits; experiment: Pupil diameter / mydriasis after topical application to rabbit eye; details: for mydriasis / effect on pupil diameter (in words): topical, rabbit
[12] = system: mongrel dogs; experiment: Intravenous dose increasing mean arterial pressure 10% in anesthetized dogs; details: anesthetized dog, i.v.
[13] = Table 4, no unit in table, IC50 defined in μM, read-out: Alpha-2 IC50

T1 sequence (P54833 whole entry): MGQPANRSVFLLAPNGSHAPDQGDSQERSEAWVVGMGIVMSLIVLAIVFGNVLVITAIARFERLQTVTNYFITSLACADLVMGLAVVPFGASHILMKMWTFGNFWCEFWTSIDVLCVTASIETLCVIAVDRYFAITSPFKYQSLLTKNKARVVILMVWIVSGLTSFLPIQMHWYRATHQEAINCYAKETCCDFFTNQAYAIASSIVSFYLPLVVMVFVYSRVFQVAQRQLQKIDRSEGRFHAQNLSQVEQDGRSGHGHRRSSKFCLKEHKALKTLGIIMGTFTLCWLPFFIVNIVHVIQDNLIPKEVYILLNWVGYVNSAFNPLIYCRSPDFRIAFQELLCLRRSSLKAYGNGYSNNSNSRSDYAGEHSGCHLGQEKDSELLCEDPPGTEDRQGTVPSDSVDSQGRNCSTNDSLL

CC(N)Cc1ccccc1 (single isomer, unassigned; (+)) [(+)-amphetamine]
locomotor depressant effect (in words) [1]: did not cause locomotor depression | locomotor stimulant effect (in words) [1]: dose- and time-dependent increase in the distance traversed | onset of increased locomotion after injection ([1]; (−)-ephedrine: following 50 to 100 mg/kg): ≤ 10 min

CC(C)(C)NCC(O)COc1cccc2[nH]c(C#N)c(I)c12 (stereo not shown) [ICYP, iodocyanopindolol]
Bmax ([2]; Saturation Analysis, Run 1): 149 femtomoles per mg protein | Kd ([2]; Saturation Analysis, Run 1): 0.0096 nM | Bmax ([2]; Saturation Analysis, Run 2): 142 femtomoles per mg protein | Kd ([2]; Saturation Analysis, Run 2): 0.0093 nM | Bmax ([2]; Saturation Analysis, Summary): 146 femtomoles per mg protein | Kd ([2]; Saturation Analysis, Summary): 0.0095 nM | Bmax ([2]; Scatchard Analysis, Run 1): 150 femtomoles per mg protein | Kd ([2]; Scatchard Analysis, Run 1): 0.0099 nM | Bmax ([2]; Scatchard Analysis, Run 2): 139 femtomoles per mg protein | Kd ([2]; Scatchard Analysis, Run 2): 0.0078 nM | Bmax ([2]; Scatchard Analysis, Summary): 145 femtomoles per mg protein | Kd ([2]; Scatchard Analysis, Summary): 0.0089 nM

Cc1ccc(/C(=C\CN2CCCC2)c2ccccn2)cc1 [triprolidine]
effect on horizontal distance, triprolidine alone ([3]; 0.25 to 25 mg/kg, injected immediately prior to testing, 2-hour test): failed to affect horizontal distance | effect on locomotion, triprolidine alone ([3]; 50 and 100 mg/kg): Dose-dependent depression of locomotion

CNC[C@H](O)c1ccc(O)c(O)c1 [Epinephrine, epinephrine]
displacement of bound p-iodoclonidine ([4]; check for imidazoline receptor labelling): easily displaced all bound p-iodoclonidine

Clc1cc(I)cc(Cl)c1NC1=NCCN1 [p-iodoclonidine]
Kd ([4]; Saturation Analysis, read-out: Kd1 (high affinity)): 0.15 nM | Kd ([4]; Saturation Analysis, read-out: Kd2 (low affinity)): 3.01 nM | Kd ([4]; Scatchard Analysis, read-out: Kd1 (high affinity)): 0.15 nM | Kd ([4]; Scatchard Analysis, read-out: Kd2 (low affinity)): 0.87 nM

CN[C@H](C)[C@H](O)c1ccccc1 (single isomer, unassigned) [(−)-pseudoephedrine]
Ki [5]: […] | Ki [4]: […] | IC50 [4, 13]: […] | ED50 at 30 min [6]: 14.6 mg/kg | Depression Potency (ID50, dose resulting in ½ the maximal depressant effect) [1]: 38.5 mg/kg | Depression Time (30-min period following injection in which the maximal depression occurred) [1]: […] | Stimulation Time (30-min period following injection in which the maximal stimulant effect occurred) [1]: […] | locomotor depressant effect (in words) [1]: some locomotor depression | locomotor stimulant effect (in words) [1]: negligible stimulation compared to (−)-ephedrine, but weak stimulation when comared to (+)-amphetamine | Dosage of Enantiomer that Raised Mean Arterial Pressure 10%, Rat [7]: […] | modification of stimulant or depressant effects by triprolidine pretreatment [3]: did not show significant modification of stimulant or depressant effects | decongestant activity (in words) [8]: as good as, or superior to, several commercially available decongestants | Mean decrease in nasal airway pressure, % Change [9]: […] | effect on IOP (in words) [10]: Little or no increase in intraocular pressure | Mydriatic Responses, TREATED EYE ([11]; 2% solution): […] | mydriasis / effect on pupil diameter (in words) [11]: produced mydriasis in the treated eye only | Intravenous Dose Needed to Increase MAP 10% [12]: […]

CN[C@@H](C)[C@@H](O)c1ccccc1 (single isomer, unassigned) [(+)-pseudoephedrine]
Ki [5]: […] | Ki [4]: […] | IC50 [4, 13]: […] | IC50 ([4]; read-out: IC50 (50% displacement of iodoclonidine from α2-receptors), text / FIGS. 3 and 4 example): […] | ED50 at 30 min [6]: 12.6 mg/kg | Depression Potency (ID50, dose resulting in ½ the maximal depressant effect) [1]: […] | Depression Time (30-min period following injection in which the maximal depression occurred) [1]: […] | Stimulation Time (30-min period following injection in which the maximal stimulant effect occurred) [1]: […] | locomotor depressant effect (in words) [1]: some locomotor depression | locomotor stimulant effect (in words) [1]: negligible stimulation compared to (−)-ephedrine, but weak stimulation when comared to (+)-amphetamine | Dosage of Enantiomer that Raised Mean Arterial Pressure 10%, Rat [7]: […] | reversal of locomotor depression by triprolidine ([3]; 25, 50 or 100 mg/kg test drug, following 0.01 mg/kg triprolidine): reversed | reversal of locomotor depression by triprolidine ([3]; following 1.0 mg/kg triprolidine): no significant reversal | modification of stimulant or depressant effects by triprolidine pretreatment [3]: Significant effects for pretreatment with triprolidine | effect on IOP (in words) [10]: slight acute elevation in IOP in the treated eye | effect on IOP in the contralateral eye (in words) ([10]; topical): delayed elevation in IOP | mydriasis / effect on pupil diameter (in words) [11]: produced mydriasis in the treated eye | Intravenous Dose Needed to Increase MAP 10% [12]: […]

CN[C@H](C)[C@@H](O)c1ccccc1 [(+)-ephedrine]
Depression Potency (ID50, dose resulting in ½ the maximal depressant effect) [1]: 7.4 mg/kg | Depression Time (30-min period following injection in which the maximal depression occurred) [1]: […] | Stimulation Potency (ED50, dose resulting in ½ the maximal stimulant effect) [1]: 38.2 mg/kg | Stimulation Time (30-min period following injection in which the maximal stimulant effect occurred) [1]: […]
